Measured values reported in US6544727B1, “Methods and devices for the removal of psoralens from blood products” (Cerus Corporation, priority 1995, dated 2003).

How the values were obtained:
[1] = HPLC of residual S-59 and photoproducts after RD containing Dowex XUS-43493 (Table N); assay type: physicochemical
Method: […] The unbound photoproducts can be monitored and quantified using a standard HPLC assay.
Samples were prepared for HPLC analysis according to the general procedure described in Example 39, infra. Briefly, the assay involved an initial sample preparation which lyses the platelets and solubilizes the S-59 and photoproducts. The supernatant from the sample preparation was then analyzed on a C-18 reverse phase column with a gradient of increasing methanol in KH2PO4 buffer. The major peaks were detected by optical absorbance.
Following illumination with 3.0 J/cm^2 UVA of a PC to which 15.2 mg S-59 had been added, the treated PC was incubated with the RD (contained within a PL 2410 Plastic container, Baxter) for 8 hours. Samples of the treated PC were then taken and subjected to HPLC for detection of residual S-59 and S-59 photoproducts. […] The Limit of Quantitation (LOQ) for the HPLC assay was 0.3 μM S-59.
The data described above indicate that the levels of residual photoproducts D and E are higher than levels of residual S-59 even thought the initial levels of D and E in the illuminated PC were much lower than S-59. […] The PC was assayed for unbound photoproducts using the HPLC assay discussed above, which quantifies the photoproducts present both within the platelets and in the plasma/PAS III mixture. […]

[2] = S-59 concentration by HPLC before and after illumination and RD treatment (Table Q); assay type: physicochemical
Method: Two ABO-matched single donor PCs containing 2−5×10^11 platelets in approximately 300 mL of 35% plasma and 65% PAS III were pooled and redivided into two identical units in PL 2410 Plastic containers (Baxter). One unit (the control) was immediately placed on a platelet shaker and stored at approximately 22° C. The other unit (the test) was treated with 150 μM S-59 and 3 Joules/cm^2 UVA. After treatment, the platelets suspension was transferred into a second PL 2410 Plastic container containing a RD. Contact between platelets and the RD occurred for a period of approximately 8 hours, then the platelet suspension was transferred to a new PL 2410 Plastic container for storage. The time of blood donation was defined as day 0. Treatment with S-59, UVA (320-400 nm), and the RD was performed on day 1. Six replicate experiments were carried out, each with a different pool of two ABO-matched single-donor platelet concentrates.
To evaluate the efficacy of the RD for reducing the concentration of S-59, platelet samples from the test unit were analyzed for S-59 content by HPLC. Samples before illumination, after 3 Joules/cm^2 of illumination, and immediately following the 8-hour RD treatment were analyzed.

[3] = test system: Salmonella tester strain TA102; experiment: Ames test, strain TA102
Method: In this example the compounds of the present invention are tested for their dark mutagenicity using an Ames assay. The procedures used for the Salmonella mutagenicity test as described in detail by Maron and Ames were followed exactly. Maron, D. M. and B. N. Ames, Mutation Research 113: 173 ( 1983). A brief description for each procedure is given here. The tester strains TA97a, TA98, TA100, TA102, TA1537 and TA1538 were obtained from Dr. Ames. TA97a, TA98, TA1537 and TA1538 are frameshift tester strains. TA100 and TA102 are base-substitution tester strains. Upon receipt each strain was cultured under a variety of conditions to confirm the genotypes specific to the strains.
The first tests done with the strains were to determine the range of spontaneous reversion for each of the strains. With each mutagenicity experiment the spontaneous reversion of the tester strains to histidine independence was measured and expressed as the number of spontaneous revertants per plate. This served as the background controls.
For all experiments, the pre-incubation procedure was used. In this procedure one vial of each tester strain was thawed and 20 μL of this culture was added to 6 mL of Oxoid Nutrient Broth #2. This solution was allowed to shake for 10 hours at 37° C. In the pre-incubation procedure, 0.1 mL of this overnight culture was added to each of the required number of sterile test tubes. To half of the tubes 0.5 mL of a 10% S-9 solution containing Aroclor 1254 induced rat liver extract (Molecular Toxicology Inc., Annapolis, Md.), and MgCl2, KCl, glucose-6-phosphate, NADP, and sodium phosphate buffer (Sigma, St. Louis, Mo.) were added. To the other half of the tubes 0.5 mL of 0.2M sodium phospate buffer, pH 7.4, was used in place of the S-9 mixture (the—S9samples). Finally 0.1 mL of the test solution containing either 0, 0.1, 0.5, 1, 5, 10, 50, 100, 250, or 500 μg/mL of the test compound was added. The 0.7 mL mixture was vortexed and then pre-incubated while shaking for 20 minutes at 37° C. After shaking, 2 mL of molten top agar supplemented with histidine and biotin were added to the 0.7 mL mixture and immediately poured onto a minimal glucose agar plate (volume of base agar was 20 mL). The top agar was allowed 30 minutes to solidify and then the plates were inverted and incubated for 44 hours at 37° C. After incubation the number of revertant colonies on each plate were counted. […] (“n” represents the number of replicates performed for each data point.)

| SMILES | Concentration Remaining (Average ± S.D.) ([1]; PC with 15.2 mg S-59, 3.0 J/cm^2 UVA, incubated 8 hours with RD containing Dowex XUS-43493, LOQ 0.3 μM) [nM] | initial 15.2 mg of S-59 removed from PCs ([1]; following illumination and incubation with the RD) | initial S-59 concentration in a platelet concentrate ([2]; 0 Joule/cm^2, HPLC) | μM S-59 ([2]; Post Treatment With An RD (8 Hours)) [µM] | μM S-59 ([2]; Pre-Treatment (0 Joule/cm^2), platelet concentrate) [µM] | initial S-59 remaining unreacted ([2]; after 3 Joule/cm^2 of illumination) | revertant colonies per plate ([3]; TA102 + S9, 0.1 μg/plate) | revertant colonies per plate ([3]; TA102 + S9, 0.5 μg/plate) | revertant colonies per plate ([3]; TA102 + S9, 1 μg/plate) | revertant colonies per plate ([3]; TA102 + S9, 5 μg/plate) | revertant colonies per plate ([3]; TA102 − S9, 0.1 μg/plate) | revertant colonies per plate ([3]; TA102 − S9, 0.5 μg/plate) | revertant colonies per plate ([3]; TA102 − S9, 1 μg/plate) | revertant colonies per plate ([3]; TA102 − S9, 5 μg/plate) |
| --- | --- | --- | --- | --- | --- | --- | --- | --- | --- | --- | --- | --- | --- | --- |
| Cc1oc2c(C)c3oc(=O)cc(C)c3cc2c1COCCN [Compound 2, 4′-(4-amino-2-oxa)butyl-4,5′,8-trimethylpsoralen] | 270 ± 50 | greater than 99% | approximately 145±10 μM | 0.27 ± 0.05 | 145 ± 10 | 20.5%±2.3% | – | – | – | – | – | – | – | – |
| Cc1oc2c(C)c3oc(=O)cc(C)c3cc2c1CN [AMT, 4′-Aminomethyl-4,5′,8-trimethylpsoralen, reference compound] | – | – | – | – | – | – | −20 | 5 | −17 | 51 | 27 | 47 | 88 | 266 |
